Data reported in patent US8883504B2, “Cell differentiation suppressing agent, method of culturing cells using the same, culture solution, and cultured cell line” (Asahi Kasei Kabushiki Kaisha, priority 2003, dated 2014).

Legend:
[1] = test system: cynomolgus monkey ES cells; assay: ES cell differentiation inhibition assay 6, alkaline phosphatase staining; assay type: cell-based; settings: for proportion of number of alkaline phosphatase stained colony to number of the total colony, in comparison with DMSO (0.1%): Matrigel-coated dish, cultured for 2 days, FIG. 15
Experimental: As the medium for culturing cynomolgus monkey ES cells, DME/F-12, 1:1 (SIGMA D6421) was added with respective factors in the final concentration as presented below to prepare a cynomolgus monkey ES cell culture medium: 20% knockout serum replacement: KSR (Invitrogen Corp. made, 10828-028), 1× nonessential amino acids (SIGMA M7145), 2 mM L-Glutamine (SIGMA G7513), 1 mM sodium pyruvate (SIGMA S8636), 1× penicillin/streptomycin solution (SIGMA P0781). The culture medium for a mouse feeder cell used for culturing cynomolgus monkey ES cells was prepared by adding respective factors to DMEM (Invitrogen Corp. made, 11960-044) in the final concentration shown below: 10% bovine fetus serum (Invitrogen Corp. made), 2 mM L-glutamine (Sigma G7513), 1× penicillin/streptomycin solution (Sigma P0781).
Gelatin (SIGMA Corp. made, Type A: from porcine ESkin, G2500) was dissolved in distilled water in 0.1% concentration, and 5 mL of the thus prepared 0.1% sterilized aqueous gelatin solution was added in a 6 cm-diameter cell culture dish, and then left stand at 37° C. for 30 minutes or longer. The aqueous gelatin solution was removed, and 2×10^6 mouse embryonic primary culture cell (Invitrogen Corp. made, YE9284400) treated with mitomycin, C (Kyouwa Hakkou Corp. made) was seeded and cultured by using the culture medium for the feeder cell as described above at 37° C. in 5% CO2 incubator (Tabai Espec Corp. made) for 5 hours or longer. The cynomolgus monkey ES cells (Tanabe Seiyaku, K.K. made) was seeded on mouse embryonic primary culture cell, and cultured and proliferated in 5 mL of cynomolgus monkey ES cell culture medium at 37° C. in 5% CO2 incubator for 3 days.
The cynomolgus monkey ES cells cultured by the method described in (1) culture of cynomolgus monkey ES cells as described above were washed with PBS and, then, a 0.1% collagenase solution (Wako Corp. made, 032-10534) dissolved in DMEM (Invitrogen Corp. made 11960-044), or a trypsin solution (prepared by mixing 10 mL of a 2.5% trypsin solution (Invitrogen Corp. made 15090-046), 20 mL of Knockout Serum Replacement (Invitrogen Corp. made 10828-028), 1 mL of a 100 mM CaCl2 aqueous solution and 69 mL of PBS) was added, and incubation was carried out at 37° C. for 5 minutes. 5 mL of the cynomolgus monkey ES cell culture medium was added, cell colonies were removed by using a small sized pipette and, then, dispersed, transferred to a 15 mL sterilized tube, and centrifuged at 1000 rpm for about 5 minutes by using the micro centrifuge (TOMY SEIKO made) to prepare pellets. The supernatant was removed, and then the cells were suspended again in 5 mL of the fresh ES cell culture medium to obtain the cynomolgus monkey ES cells. […]

SSEA-1 antigen = assay: Evaluation of the expression level of SSEA-1 antigen 1 (flow cytometry); assay type: cell-based, mouse; settings: D3ES cells, 7 days, FIG. 8
Experimental: For the D3ES cells prepared by the method described in (3) preparation of a mouse ES cell of Example 1, 8×10^4 cells were seeded in a 10 cm-diameter cell culture dish coated previously with a 0.1% aqueous gelatin solution to make 10 mL of the ES cell assay medium. 1 mL of the differentiation inhibiting agent A to F, which were dissolved in dimethylsulfoxide (DMSO) or culture medium or their mixture to make 40 μg/mL per each dish, or ESGRO, which was adjusted to make 10^4 unit/mL, was added, and culturing was carried out at 37° C. in 5% […] incubator for 7 days. To the culture medium was added DMSO to make the final concentration 0.1% or lower.
The cells cultured in (1) ES cell differentiation inhibition assay 2 as described above were washed twice with PBS, and were removed from the dish with a cell scraper. 300 μL of Hanks balanced salt solution (HBSS, Invitrogen Corp. made) containing 2% FBS was added to give 6×10^5 cells. 30 μL of MX-SSEA-1 antibody (Kyowa Medex Corp. made) diluted 50 folds with HBSS was added, and left stand for 40 minutes on ice. […] The sample used for flow cytometry was measured after passed through a nylon mesh with a 100 μm pore size to eliminate a coagulated mass. […]

SMILES | alkaline phosphatase staining of subcultured cells in comparison with DMSO ([1]; 3rd day after subculture after 3-day culture, FIG. 16) | proportion of number of alkaline phosphatase stained colony to number of the total colony, in comparison with DMSO (0.1%) [1] | effect on alkaline phosphatase staining in the presence of 6-bromoindirubin-3-oxime ([1]; subcultured, in the presence of 6-bromoindirubin-3-oxime, FIG. 16) | average fluorescence intensity per 1 cell (SSEA-1 antigen expression intensity per 1 cell) in comparison with medium without agent (SSEA-1 antigen)
COc1ccc(N=NC(C(N)=O)=C2NC(C)(C)Cc3ccccc32)cc1 [F, 2-(3,3-dimethyl-3,4-dihydro-2H-isoquinoline-1-ylidene)-2-(4-methoxy-phenylazo)-acetamide] | stained significantly | significantly higher proportion of colonies stained with alkaline phosphatase | reinforced | –
CC1(C)Cc2ccccc2C(=C(N=Nc2cccc(Cl)c2)C(N)=O)N1 [C, 2-(3-chloro-phenylazo)-2-(3,3-dimethyl-3,4-dihydro-2H-isoquinoline-1-ylidene)-acetamide] | – | – | – | significantly high
CC1(C)Cc2ccccc2C(=C(N=Nc2cccc([N+](=O)[O-])c2)C(N)=O)N1 [E, 2-(3,3-dimethyl-3,4-dihydro-2H-isoquinoline-1-ylidene)-2-(3-nitro-phenylazo)-acetamide] | – | – | – | significantly high
CC(=O)c1ccc(/N=N/C(C(N)=O)=C2/NC(C)(C)Cc3ccccc32)cc1 [compound B, 2-(4-acetyl-phenylazo)-2-(3,3-dimethyl-3,4-dihydro-2H-isoquinoline-1-ylidene)-acetamide] | – | significantly higher proportion of colonies stained with alkaline phosphatase | – | –
